Measured values published in patent US20200239962A1, “COMPOSITIONS AND METHODS FOR DETECTING A NEOPLASIA” (The Johns Hopkins University, priority 2010, published 2020).

System: BNC1 and ADAMTS1 gene expression in pancreatic cancer cell lines (Panc1, MIA-PaCa2, Capan1, PL45)
Assay: Quantitative RT-PCR re-expression of silenced BNC1 and ADAMTS1 after drug treatment
Type: cell-based, human
Settings: 5 uM DAC or 300 nM TSA, relative to mock-treated cells; TSA result excepts PL45
Experimental: FIGS. 2A, 2B, and 2C depict promoter methylation gels and corresponding bar graphs, a CpG methylation diagram, and a schematic depicting methylation-on-bead (MOB) technology, respectively. […] M=methylation signal; U=unmethylated signal. IVD=in vitro methylated DNA. Real-time RT-PCR expression is shown as fold change ±SE relative to mock-treated cells during 5 uM 5-Aza-deoxycitidine (DAC) and 300 nM Trichostatin A (TSA) treatments. […] The BNC1 promoter regions is depicted as a line, with CpG regions designated as vertical slashes. TIS indicates the transcriptional start site. Location of CpG sites (bisulfite priners (BST): upstream region from −331 to +36 relative to transcriptional start site). […] Samples are analyzed using MS-qFRET or gel electrophoresis.
This genome-wide DNA hypermethylome screening is based on a pharmacological approach using 5-deoxy-azacytidineand TSA, which has shown an excellent correlation between promoter DNA methylation and inhibition of gene expression and re-expression after treatment with a DNA demethylating drug, such as 5-deoxy-azacytidine, in prior studies on breast and colorectal cancer. Here, promoter methylation of BNC1 and ADAMTS1 was tested, and correlated with a lack of gene expression in pancreatic cancer cell lines (Panc1, MIA-PaCa2, Capan1, and PL45) using quantitative RT-PCR (qRT-PCR) (FIG. 2A, upper panel). […]

| SMILES | re-expression of BNC1 and ADAMTS1 (qRT-PCR) |
| --- | --- |
| Nc1ncn([C@H]2C[C@H](O)[C@@H](CO)O2)c(=O)n1 [5-deoxy-azacytidine] | significant re-expression |
| CC(/C=C/C(=O)NO)=C\[C@@H](C)C(=O)c1ccc(N(C)C)cc1 [TSA, Trichostatin A] | minimal re-expression |
